Experimental data: patent US4602927A, “4-alkylimidazole derivatives and their use as nitrification inhibitors” (BASF Aktiengesellschaft, priority 1983, dated 1986)

Tested on: nitrification
Test: % inhibition of nitrification in soil (ammonium sulfate remaining in loamy sandy soil, Nessler reagent, 420 nm)
Details: 1 ppm based on moist soil, 50% of maximum water capacity, 28 days at 21° C., 220 mg ammonium sulfate per 200 g soil, versus untreated soil
Description: 220 mg of ammonium sulfate were mixed thoroughly with 200 g of a loamy sandy soil whose moisture content had been brought to 50% of the maximum water capacity. The active ingredients, dissolved in 0.2 ml of acetone, were then added in amounts of 1 ppm, based on moist soil. After careful, thorough mixing, and evaporation of the acetone, the soil samples were incubated for 28 days at 21° C., together with the controls without added active ingredient, 1 liter glass vessels covered with aluminum foil to avoid loss of water.
2.5 g of each of the soil samples were then introduced into 100 ml conical flasks, and 22.5 ml of a 0.1N sodium sulfate solution was added. The flask was shaken for 30 minutes, after which the mixture was filtered, and 2.5 ml samples of the soil extracts were mixed with […] of distilled water. To detect the ammonium ions still present in the soil extract, 1.25 ml of Nessler reagent were then added, and the mixture was shaken thoroughly. The color changes were then measured photometrically at a wavelength of 420 nm. The amounts of ammonium sulfate still present in the soil samples were then determined with reference to standard curves obtained by a measurement of solutions containing known amounts of ammonium sulfate. The percentage inhibition of nitrification in the treated soil samples compared with the untreated soil samples (to which only ammonium sulfate had been added) was calculated using the following formula: [formula] a=nitrification rate for ammonium sulfate b=nitrification rate for ammonium sulfate+nitrification inhibitor

Row | SMILES | % inhibition of nitrification 4 weeks after the addition of 1 ppm of active ingredient to the soil [%]
1 | CNC(=O)n1cnc(C)c1Cl [Example 1, 1-N-methylcarbamyl-4-methyl-5-chloroimidazole] | 94
2 | Cc1ncn(C(=O)Nc2ccccc2)c1Cl [Example 3, 1-N-phenylcarbamyl-4-methyl-5-chloroimidazole] | 85
3 | Cc1ccn(C(=O)NOc2ccccc2)n1 [A, 1-phenoxycarbamyl-3-methylpyrazole, reference compound] | 69
4 | Cc1ncn(C(=O)Nc2ccc(Cl)c(Cl)c2)c1Cl [Example 4, 1-N-(3,4-dichlorophenyl)-carbamyl-4-methyl-5-chloroimidazole] | 71
